Values quoted from earlier work as cited in US20030157171A1 (priority 2003, published 2003).

| water solubility (in words) | water solubility at pH values below 7.0 (pH below 7.0) | SMILES |
| --- | --- | --- |
| poorly water soluble | – | COc1ccc2c(c1)c(CC(=O)O)c(C)n2C(=O)c1ccc(Cl)cc1 [Indomethacin] |
| – | low | C[C@H](CCC(=O)O)[C@H]1CC[C@H]2[C@@H]3[C@@H](O)C[C@@H]4C[C@H](O)CC[C@]4(C)[C@H]3CC[C@]12C [Ursodeoxycholic Acid] |
